Test results from the NIST ThermoML archive (doi:10.1016/j.jct.2005.05.012).

Legend:
[1] = refractive index (other wavelength) (dimensionless); conditions: 101 kPa, Liquid, Wavelength=632.8 nm, Newport model 1825-C
[2] = refractive index (other wavelength) (dimensionless); xn = mol fraction of the nth substance listed; conditions: 305.5 K, 101 kPa, Liquid, Wavelength=632.8 nm, Newport model 1825-C

N#Cc1ccccc1 [benzonitrile]
[1]
Conditions | refractive index
301.4 K | 1.521
302.96 K | 1.5202
304.8 K | 1.5194
306.42 K | 1.5186
307.83 K | 1.5179
309.65 K | 1.517

CCCCCCCCCCCCCCCCCC [octadecane]
[1]
Conditions | refractive index
301.97 K | 1.4339
303.42 K | 1.4333
304.68 K | 1.4328
306.38 K | 1.4321
307.84 K | 1.4315
309.28 K | 1.4307

CCCCCCCCCCCCCCCCCC [octadecane] + N#Cc1ccccc1
[2]
Conditions | refractive index
x2 = 0.0996 | 1.4316
x2 = 0.1986 | 1.4362
x2 = 0.2992 | 1.4398
x2 = 0.4025 | 1.4447
x2 = 0.4955 | 1.4499
x2 = 0.5947 | 1.4567
x2 = 0.7985 | 1.4777
x2 = 0.8876 | 1.4917
